Source: patent US20150290232A1, “DRUG COMPOSITION FOR TREATING TUMORS AND APPLICATION THEREOF” (priority 2012, published 2015)
Read-outs that look alike come from different tables or passages of the source.

Columns and labels:
[1] = test system: A549 transplanted tumor (human non-small cell lung cancer cell line); assay: Example 5: Acla A on A549 transplanted tumor in nude mice; assay type: in vivo, BALB/c-nu nude mice; settings: A549, Jef 50 mg/kg/time intragastric, 2 times a day, 14 days, Day 20
Description: Under sterile conditions, the above tumor cells were collected in the logarithmic growth phase. A549 was injected by subcutaneous injection in an amount of 6×10 6/0.2 mL/nude mice (cell viability>90%) into the right subaxillary of the nude mice, thus establishing transplated tumor models of lung cancer in nude mice. The mice were administered from the second day after the inoculation. The experimental group was intragastrically administered at the experimentally designed amount, the negative control group was intragastrically administered with sterile water, and the positive control group is intragastrically administered with Jef. Each mouse was intragastrically administered in 0.4 ml each time and 2 times a day, at 8:00, and 14:00. The administrations were successive for 14 days. The day before administration was deemed as Day 0 and the body weight and tumor size of the mice were determined every 5 days to produce a dynamic plot on body weight and tumor growth. On Day 20, the mice were sacrificed and the tumors were taken out and weighed. The tumor inhibition rate (%) was calculated after the effect of the medicament based on a tumor inhibition rate of the control group being zero.
(§1) The values determined were presented as mean±standard error (Mean±SD). The experimental data for each group was analyzed with One-way ANOVA method in the SPSS 18.0 statistical software, and p<0.05 means that the differences are statistically significant.

[2] = test system: A549 transplanted tumor (human non-small cell lung cancer cell line); assay: Example 6: TTD and Acla A combined on A549 transplanted tumor in nude mice; assay type: in vivo, BALB/c-nu nude mice; settings: A549, Jef 50 mg/kg/time intragastric, 3 times a day, 10 days, Day 29
Description: (§2) Under sterile conditions, the above tumor cells were collected in the logarithmic growth phase. A549 was injected by subcutaneous injection in an amount of 1×10 7/0.2 mL/nude mice (cell viability>90%) into the right subaxillary of the nude mice, whereas HepG2 was injected by subcutaneous injection in an amount of 1×10 7/0 2 mL/nude mice (cell viability>90%) into the left subaxillary of the nude mice, thus establishing transplated tumor models of lung cancer and liver cancer respectively in nude mice. The mice were administered from the second day after the inoculation. […] Each mouse was intragastrically administered in 0.4 ml each time and 3 times a day, at 8:00, 14:00 and 20:00. The administrations were successive for 10 days. The day before administration was deemed as Day 0 and the body weight and tumor size of the mice were determined every 5 days to produce a dynamic plot on body weight and tumor growth. On Day 29, the mice were sacrificed and the tumors were taken out and weighed. The tumor inhibition rate (%) was calculated after the effect of the medicament based on a tumor inhibition rate of the control group being zero.
as §1

[3] = test system: Hep G2 transplanted tumor (human hepatoma carcinoma cell); assay: Example 6: TTD and Acla A combined on Hep G2 transplanted tumor in nude mice; assay type: in vivo, BALB/c-nu nude mice; settings: Hep G2, Jef 50 mg/kg/time intragastric, 3 times a day, 10 days, Day 29
Description: as §2, §1

[4] = test system: human leukemia Jurkat cells; settings: cited from earlier work
[5] = test system: peripheral blood leucocyte of a normal human being; settings: berbamine 0.5 μg/mL to 10 μg/mL; cited from earlier work

| SMILES | Mass of tumor ([1]; Mean ± SD) | tumor inhibition rate ([1]; control = 0) | Mass of tumor ([2]; Mean ± SD) | tumor inhibition rate ([2]; control = 0) | Mass of tumor ([3]; Mean ± SD) | tumor inhibition rate ([3]; control = 0, * P < 0.05) | cell viability ([4]; berbamine 0.5 μg/mL) | cell viability ([4]; berbamine 10 μg/mL) | cytotoxic effect (in words) [5] |
| --- | --- | --- | --- | --- | --- | --- | --- | --- | --- |
| COc1cc2ncnc(Nc3ccc(F)c(Cl)c3)c2cc1OCCCN1CCOCC1 [Jef, Jefitinib] | 0.38 ± 0.37 g | −14.34% | 1.52 ± 1.00 g | −34.11% | 0.31 ± 0.10 g | 54.08* % |  |  |  |
| COc1cc2c3cc1Oc1c(OC)c(OC)cc4c1[C@@H](Cc1ccc(O)c(c1)Oc1ccc(cc1)C[C@@H]3N(C)CC2)N(C)CC4 [berbamine, 6,6′,7-trimethoxy-2,2′-dimethylberbaman-12-ol] |  |  |  |  |  |  | 93.69% | 14.85% | no evident cytotoxic effect |
